Source: ChEMBL document CHEMBL6096664, “Discovery of novel KSP-targeting PROTACs with potent antitumor effects in vitro and in vivo” (Eur J Med Chem, 2025)

Legend:
HCT-116 [1] = assay: Induction of apoptosis in human HCT-116 cells assessed as late apoptotic cells at 10 nM incubated for 48 hrs by Annexin V-FITC/PI staining based flow cytometry analysis (reference value: 1.36 %); type: functional
[2] = target: T1, Protein cereblon/Kinesin-like protein KIF11 (Homo sapiens, UniProt P52732+Q96SW2); assay: PROTAC activity at CRBN/KSP in human HCT-116 cells assessed as reduction of KSP protein level at 200 nM by Western blot analysis; type: cell-based; details: time 6-48 hrs
Target sequence in this assay (P52732 whole entry, looked up): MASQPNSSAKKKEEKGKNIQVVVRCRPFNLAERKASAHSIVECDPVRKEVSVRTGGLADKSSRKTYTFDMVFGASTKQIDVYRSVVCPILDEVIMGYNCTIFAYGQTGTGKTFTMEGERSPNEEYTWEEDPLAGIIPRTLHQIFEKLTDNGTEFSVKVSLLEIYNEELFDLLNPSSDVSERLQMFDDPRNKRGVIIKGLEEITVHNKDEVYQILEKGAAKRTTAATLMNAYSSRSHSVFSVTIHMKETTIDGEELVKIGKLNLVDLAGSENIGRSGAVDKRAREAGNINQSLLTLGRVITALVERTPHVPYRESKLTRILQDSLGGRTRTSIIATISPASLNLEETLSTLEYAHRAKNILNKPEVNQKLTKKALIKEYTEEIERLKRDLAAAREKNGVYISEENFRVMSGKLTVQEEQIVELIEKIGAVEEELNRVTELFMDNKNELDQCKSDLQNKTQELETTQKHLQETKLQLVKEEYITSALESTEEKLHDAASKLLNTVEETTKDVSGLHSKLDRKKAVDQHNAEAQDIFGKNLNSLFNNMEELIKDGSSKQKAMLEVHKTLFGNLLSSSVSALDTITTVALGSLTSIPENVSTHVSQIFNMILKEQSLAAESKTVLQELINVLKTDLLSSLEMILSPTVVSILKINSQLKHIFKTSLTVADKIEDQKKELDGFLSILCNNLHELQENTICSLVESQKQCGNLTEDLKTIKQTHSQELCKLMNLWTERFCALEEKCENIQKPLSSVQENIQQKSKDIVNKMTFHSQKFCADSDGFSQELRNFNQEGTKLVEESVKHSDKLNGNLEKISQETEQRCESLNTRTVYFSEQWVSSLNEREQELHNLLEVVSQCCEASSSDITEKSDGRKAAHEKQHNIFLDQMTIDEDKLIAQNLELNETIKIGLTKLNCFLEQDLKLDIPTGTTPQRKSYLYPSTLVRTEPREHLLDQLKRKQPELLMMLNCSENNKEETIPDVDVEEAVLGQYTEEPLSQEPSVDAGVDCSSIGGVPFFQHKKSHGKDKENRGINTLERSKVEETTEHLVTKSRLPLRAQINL
Target sequence in this assay (Q96SW2 whole entry, looked up): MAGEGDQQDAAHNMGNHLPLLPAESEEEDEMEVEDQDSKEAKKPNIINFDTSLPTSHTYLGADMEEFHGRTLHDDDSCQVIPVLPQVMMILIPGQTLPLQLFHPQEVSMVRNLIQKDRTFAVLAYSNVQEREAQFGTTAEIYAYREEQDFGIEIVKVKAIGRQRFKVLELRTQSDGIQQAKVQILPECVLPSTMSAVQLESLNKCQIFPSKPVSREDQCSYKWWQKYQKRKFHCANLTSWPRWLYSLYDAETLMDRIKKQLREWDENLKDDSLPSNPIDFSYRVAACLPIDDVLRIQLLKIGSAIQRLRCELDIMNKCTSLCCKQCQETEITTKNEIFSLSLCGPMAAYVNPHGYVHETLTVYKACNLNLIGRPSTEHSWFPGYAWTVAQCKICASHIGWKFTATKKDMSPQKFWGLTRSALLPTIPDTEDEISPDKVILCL

HCT-116 [3] = assay: Antitumor activity against human HCT-116 cells xenografted in female BALB/c nu/nu mouse assessed as reduction in tumor weight at 15 mg/kg, ip measured every 2 days for 14 days relative to control; type: functional; design: scale not given: the % may be the effect or the level left; details: time 14 day
[4] = Toxicity in female BALB/c nu/nu nude mouse xenografted with human HCT-116 cells assessed as body weight loss at 7.5 to 15 mg/kg, ip measured every 2 days for 14 days; type: organism-based; details: in vivo, 336 h, dose 7.5-15 mg/kg, time 14 day
HCT-116 [5] = assay: Induction of cell cycle arrest in human HCT-116 cells assessed as accumulation of cells at G1 phase at 10 nM incubated for 24 hrs by RNase A/propidium iodide staining based flow cytometric analysis (reference value: 93.11 %); type: functional
HCT-116 [6] = assay: Induction of cell cycle arrest in human HCT-116 cells assessed as accumulation of cells at G2/M phase at 100 nM incubated for 24 hrs by RNase A/propidium iodide staining based flow cytometric analysis (reference value: 4.05 %); type: functional
[7] = target: T1, Protein cereblon/Kinesin-like protein KIF11; assay: PROTAC activity at CRBN/KSP in human HCT-116 cells assessed as induction of KSP degradation incubated for 48 hrs by Western blot analysis; type: cell-based
HCT-116 [8] = assay: Induction of apoptosis in human HCT-116 cells assessed as viable cells at 100 nM incubated for 48 hrs by Annexin V-FITC/PI staining based flow cytometry analysis (reference value: 94.31 %); type: functional; details: read-out: Activity
HCT-116 [9] = assay: Induction of apoptosis in human HCT-116 cells assessed as necrotic cells at 100 nM incubated for 48 hrs by Annexin V-FITC/PI staining based flow cytometry analysis (reference value: 1.31 %); type: functional

Activity [7]: Dose-dependent-effect
DC50 [7]: 0.115 µM
SMILES: COc1ccc(C2(SC[C@H](N)C(=O)NCCCCCCCCNC(=O)COc3cccc4c3C(=O)N(C3CCC(=O)NC3=O)C4=O)c3ccccc3C=Cc3ccccc32)cc1 (stereo not given in full)
Activity (HCT-116 [1]): 14.96%
Activity [2]: Time-dependent-effect; Considerable Ksp Degradation Noticed Within 6 Hrs
Activity (HCT-116 [3]): 99%
Activity [4]: Non-toxic
Activity (HCT-116 [5]): 75.34%
Activity (HCT-116 [6]): 75.05%
viability at 0.1 µM (HCT-116 [8]): 29.1%
Activity (HCT-116 [9]): 14.98%
